Reference: article PMC9124818 (Pharmacology Research & Perspectives, 2022)

Experiments:
CYP2C9 = CYP2C9 (Homo sapiens, UniProt P11712); conditions: ref 35 von Moltke et al.; cited from earlier work
CYP1A2 = target: T1, CYP1A2 (Homo sapiens, UniProt P05177); conditions: ref 35 von Moltke et al.; cited from earlier work
T1 sequence (P05177 1-516): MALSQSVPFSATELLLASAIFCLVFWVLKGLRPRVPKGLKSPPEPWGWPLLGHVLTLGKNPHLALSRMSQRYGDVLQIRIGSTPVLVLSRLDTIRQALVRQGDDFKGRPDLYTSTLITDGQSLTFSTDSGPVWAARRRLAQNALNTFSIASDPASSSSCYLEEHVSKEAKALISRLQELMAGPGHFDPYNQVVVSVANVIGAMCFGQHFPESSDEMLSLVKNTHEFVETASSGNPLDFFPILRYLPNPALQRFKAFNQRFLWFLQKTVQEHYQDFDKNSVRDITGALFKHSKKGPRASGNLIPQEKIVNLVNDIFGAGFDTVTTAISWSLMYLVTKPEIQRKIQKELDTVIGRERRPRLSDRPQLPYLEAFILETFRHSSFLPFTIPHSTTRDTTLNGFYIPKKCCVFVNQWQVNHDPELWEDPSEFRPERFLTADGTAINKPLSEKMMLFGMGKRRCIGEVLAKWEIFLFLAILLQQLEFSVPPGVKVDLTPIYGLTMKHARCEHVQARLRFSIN

CYP2D6 = CYP2D6 (Homo sapiens, UniProt P10635); conditions: CYP2D6‐dependent dextromethorphan O‐demethylation; ref 35 von Moltke et al.; cited from earlier work
CYP2D6, sequence (P10635 whole entry): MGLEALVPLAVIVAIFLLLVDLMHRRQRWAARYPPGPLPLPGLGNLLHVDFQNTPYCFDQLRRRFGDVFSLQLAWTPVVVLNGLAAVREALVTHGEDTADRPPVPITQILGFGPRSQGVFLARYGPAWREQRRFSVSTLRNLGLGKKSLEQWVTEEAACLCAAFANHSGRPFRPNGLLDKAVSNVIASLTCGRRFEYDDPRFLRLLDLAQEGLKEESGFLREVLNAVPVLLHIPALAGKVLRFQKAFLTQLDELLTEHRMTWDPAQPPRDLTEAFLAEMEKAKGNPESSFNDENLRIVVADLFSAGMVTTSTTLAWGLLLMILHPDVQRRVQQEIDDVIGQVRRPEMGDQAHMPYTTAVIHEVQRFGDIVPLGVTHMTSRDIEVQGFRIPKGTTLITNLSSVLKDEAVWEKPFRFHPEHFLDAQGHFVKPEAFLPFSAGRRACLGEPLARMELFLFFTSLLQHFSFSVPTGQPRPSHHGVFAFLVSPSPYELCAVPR

CYP3A = conditions: ref 35 von Moltke et al.; cited from earlier work
CYP1A2 mRNA = experiment: CYP450 induction in cultured human hepatocytes, mRNA by qRT-PCR; format: cell-based; conditions: human, hepatocytes, 3 days, 50 μM
Procedure: Each PCR was performed in triplicate.

CYP2C9, sequence (P11712 whole entry): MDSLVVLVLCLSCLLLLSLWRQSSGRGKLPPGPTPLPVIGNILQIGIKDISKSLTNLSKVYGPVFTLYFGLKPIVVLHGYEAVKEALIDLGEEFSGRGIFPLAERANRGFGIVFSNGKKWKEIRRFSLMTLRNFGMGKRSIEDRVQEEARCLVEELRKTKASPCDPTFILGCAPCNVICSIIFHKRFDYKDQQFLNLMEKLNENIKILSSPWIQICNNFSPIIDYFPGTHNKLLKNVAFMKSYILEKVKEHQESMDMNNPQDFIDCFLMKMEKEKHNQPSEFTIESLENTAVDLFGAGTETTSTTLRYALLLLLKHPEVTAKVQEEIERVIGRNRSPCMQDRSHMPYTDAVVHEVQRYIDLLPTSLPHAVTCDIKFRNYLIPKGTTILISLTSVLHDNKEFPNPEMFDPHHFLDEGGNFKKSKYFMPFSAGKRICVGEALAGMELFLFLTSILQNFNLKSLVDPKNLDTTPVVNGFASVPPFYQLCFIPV

SMILES | inhibitor potential (CYP2C9) | inhibitor potential (CYP1A2) | IC50 (CYP2D6) [µM] | inhibitor potential (CYP3A) | increase in CYP1A2 mRNA levels (CYP1A2 mRNA)
CCN[C@@H](C)Cc1cccc(C(F)(F)F)c1 [D‐FFA] | weak or negligible inhibitor potential | weak or negligible inhibitor potential | 15.1 | weak or negligible inhibitor potential | 
CCN[C@H](C)Cc1cccc(C(F)(F)F)c1 [L‐FFA] | weak or negligible inhibitor potential | weak or negligible inhibitor potential | 15.1 | weak or negligible inhibitor potential | 
COc1ccc2[nH]c([S+]([O-])Cc3ncc(C)c(OC)c3C)nc2c1 (stereo not drawn) [Omeprazole, omeprazole, reference compound] |  |  |  |  | 32.7-52.5 fold
